Assay results as given in patent US20100125059A1, “1-BIARYLAZETIDINONE DERIVATIVE” (Teijin Pharma Limited, priority 2007, published 2010).
Where two headings read alike, the source gives them in different places.

Test system: hamsters fed a high cholesterol diet
Experiment: Measurement of lipid lowering effect in hamsters fed a high cholesterol diet
Format: in vivo, Male Golden Syrian hamsters
Conditions: Mesocricetus auratus, po, 168 h, gavage once daily, 7 days
Protocol: Male Golden Syrian hamsters are divided into groups each consisting of 6 animals and fed a controlled high cholesterol diet (CE-2 containing 0.5% cholesterol; CLEA Japan, Inc.) for 28 days at most. From the start of feeding of the high cholesterol diet, the test compounds are administered by gavage once daily. For the administration, 0.2 mL of corn oil alone per 100 g (control group) or a solution (or suspension) of the test compound in corn oil at a dose of 0.01 to 10 mg/kg was given. At the same time, a group fed with a normal diet during the same study period is handled as a normal group. 4 hours after the last administration, whole blood is collected from the abdominal aorta under light anesthesia with ether and serum is separated from the blood. Further, livers are harvested, wet liver weights are measured, and part (about 0.5 g) of the harvested livers are extracted and weighed. 2-propanol in an amount 4 times the weight of the extracted livers are added, the resulted mixtures are homogenized, and the centrifuged supernatant are recovered and used as liver-derived samples.
Serum and liver TC concentrations are determined by an enzyme method using L-type Wako CHO•H (Wako Pure Chemical Industries Ltd.) or Cholestest CHO (Daiichi Pure Chemicals Co., Ltd.). Serum TG concentrations are determined by an enzyme method using L-type Wako TG•H (Wako Pure Chemical Industries Ltd.) or Autosera S TG-N (Daiichi Pure Chemicals Co., Ltd.) and a free glycerine elimination method. LDL-C concentrations are determined by a direct method using L-type Wako LDL-C•M (Wako Pure Chemical Industries Ltd.) or Cholestest LDL (Daiichi Pure Chemicals Co., Ltd.). Human serum was commonly used as a sample for the calibration curve for determinations of serum and liver TC concentrations, serum TG concentration, and serum LDL-C concentration. The effect of the test compound is shown by a suppression rate (%) of an increase in serum TC concentration due to feeding of the high cholesterol diet, a serum TG lowering rate (%), a suppression rate (%) of an increase in serum LDL-C concentration due to feeding of the high cholesterol diet, and a suppression rate (%) of an increase in liver TC concentration due to feeding of the high cholesterol diet calculated in accordance with the following equations.
In the Equation 2, A is the control group, B is the test compound group, and C is the normal group.
In the Equation 3, A is the control group, B is the test compound group, and C is the normal group.
In the Equation 4, A is the control group, B is the test compound group, and C is the normal group.
In the Equation 5, A is the control group, and B is the test compound group.
The following results were obtained from the study by this method on the effects of lowering serum TC, LDL-C, and TG, and liver TC in the hamsters fed with a high cholesterol diet which were given the test compounds for 7 days.
The compounds in which pyridyl of compound of example 51 and 55 was exchanged for phenyl, were used as comparative compound 1 and 2, respectively. In the same method as Example 112, the suppression rate (%) of an increase in serum TC concentration of comparative compound 1 and 2 were calculated.

[1] = read-out: liver TC lowering effect (suppression rate of an increase in liver TC concentration)
[2] = read-out: serum TC lowering effect (suppression rate of an increase in serum TC concentration)
[3] = read-out: serum TG lowering effect (serum TG lowering rate)
[4] = read-out: serum LDL-C lowering effect (suppression rate of an increase in serum LDL-C concentration)

SMILES	inhibition in vivo at 0.1 mg/kg [3]	inhibition in vivo at 0.1 mg/kg [2]	inhibition in vivo at 0.1 mg/kg [4]	other results
O=C1[C@H](SC[C@H](O)c2ccc(F)cc2)[C@@H](c2ccc(O)cc2O)N1c1ccc(-c2cccnc2)cc1 [Example 2, (3R,4R)-3-[(2R)-2-(4-fluorophenyl)-2-hydroxyethylthio]-4-(2,4-dihydroxyphenyl)-1-[4-(pyridin-3-yl)phenyl]azetidin-2-one]				inhibition in vivo at 0.01 mg/kg [1]: ≥ 30%; inhibition in vivo at 0.01 mg/kg [2]: ≥ 30%
O=C1[C@H](SC[C@H](O)c2ccc(F)cc2)[C@@H](c2ccc(O)cc2)N1c1ccc(-c2ccc(C(F)(F)F)cn2)cc1 [Example 3, (3R,4R)-3-[(2R)-2-(4-fluorophenyl)-2-hydroxyethylthio]-4-(4-hydroxyphenyl)-1-[4-(5-trifluoromethylpyridin-2-yl)phenyl]azetidin-2-one]	≥ 20%			
O=C1[C@H](SC[C@H](O)c2ccc(F)cc2)[C@@H](c2ccc(O)cc2)N1c1ccc(-c2cncnc2)cc1 [Example 10, (3R,4R)-3-[(2R)-2-(4-fluorophenyl)-2-hydroxyethylthio]-4-(4-hydroxyphenyl)-1-[4-(pyrimidin-5-yl)phenyl]azetidin-2-one]	≥ 20%	≥ 50%		
N#Cc1cncc(-c2ccc(N3C(=O)[C@H](SC[C@H](O)c4ccc(F)cc4)[C@H]3c3ccc(O)cc3)cc2)c1 [Example 18, 5-(4-{(3R,4R)-3-[(2R)-2-(4-fluorophenyl)-2-hydroxyethylthio]-4-(4-hydroxyphenyl)-2-oxoazetidinyl}phenyl)pyridine-3-carbonitrile]	≥ 20%		≥ 50%	inhibition in vivo at 0.01 mg/kg [2]: ≥ 30%
O=C(CS[C@H]1C(=O)N(c2ccc(-c3cccnc3)cc2)[C@@H]1c1ccc(O)cc1)c1ccc(F)cc1 [Example 27, (3R,4R)-3-[2-(4-fluorophenyl)-2-oxoethylthio]-4-(4-hydroxyphenyl)-1-[4-(pyridin-3-yl)phenyl]azetidin-2-one]		≥ 50%	≥ 50%	
O=C1[C@H](SC[C@H](O)c2ccc(F)cc2F)[C@@H](c2ccc(O)cc2)N1c1ccc(-c2cccnc2)cc1 [Example 30, (3R,4R)-3-[(2R)-2-(2,4-difluorophenyl)-2-hydroxyethylthio]-4-(4-hydroxyphenyl)-1-[4-(pyridin-3-yl)phenyl]azetidin-2-one]		≥ 50%	≥ 50%	inhibition in vivo at 0.1 mg/kg [1]: ≥ 50%
O=C1[C@H](SC[C@H](O)c2ccc3c(c2)OCO3)[C@@H](c2ccc(O)cc2)N1c1ccc(-c2cccnc2)cc1 [Example 33, (3R,4R)-3-[(2R)-2-(2H-benzo[3,4-d]1,3-dioxolen-5-yl)-2-hydroxyethylthio]-4-(4-hydroxyphenyl)-1-[4-(pyridin-3-yl)phenyl]azetidin-2-one]		≥ 50%	≥ 50%	
O=C1[C@H](SC[C@H](O)c2ccc(F)cc2)[C@@H](c2ccc(O)c([N+](=O)[O-])c2)N1c1ccc(-c2cccnc2)cc1 [Example 42, (3R,4R)-3-[(2R)-2-(4-fluorophenyl)-2-hydroxyethylthio]-4-(4-hydroxy-3-nitrophenyl)-1-[4-(pyridin-3-yl)phenyl]azetidin-2-one]			≥ 50%	
O=C1[C@H](SC[C@H](O)c2ccc(Cl)s2)[C@@H](c2ccc(O)cc2)N1c1ccc(-c2cccnc2)cc1 [Example 46, (3R,4R)-3-[(2S)-2-(5-chlorothiophen-2-yl)-2-hydroxyethylthio]-4-(4-hydroxyphenyl)-1-[4-(pyridin-3-yl)phenyl]azetidin-2-one]	≥ 20%			
CCNC(=O)c1cncc(-c2ccc(N3C(=O)[C@H](SC[C@H](O)c4ccc(F)cc4)[C@H]3c3ccc(O)cc3)cc2)c1 [Example 49, N-ethyl-5-(4-{(3R,4R)-3-[(2R)-2-(4-fluorophenyl)-2-hydroxyethylthio]-4-(4-hydroxyphenyl)-2-oxoazetidinyl}phenyl)pyridine-3-carboxamide]	≥ 20%	≥ 50%	≥ 50%	
O=C1[C@H](SC[C@H](O)c2ccc(F)cc2)[C@@H](c2ccc(O)cc2)N1c1ccc(-c2cnccn2)cc1 [Example 53, (3R,4R)-3-[(2R)-2-(4-fluorophenyl)-2-hydroxyethylthio]-4-(4-hydroxyphenyl)-1-[4-(pyrazin-2-yl)phenyl]azetidin-2-one]			≥ 50%	
N#Cc1ccc(-c2ccc(N3C(=O)[C@H](SC[C@H](O)c4ccc(Cl)cc4)[C@H]3c3ccc(O)cc3)cc2)cn1 [Example 60, 5-(4-{(3R,4R)-3-[(2R)-2-(4-chlorophenyl)-2-hydroxyethylthio]-4-(4-hydroxyphenyl)-2-oxoazetidinyl}phenyl)pyridine-2-carbonitrile]	≥ 20%		≥ 50%	
O=C1[C@H](SC[C@H](O)c2ccc(Cl)cc2)[C@@H](c2ccc(O)cc2O)N1c1ccc(-c2cccnc2)cc1 [Example 62, (3R,4R)-3-[(2R)-2-(4-chlorophenyl)-2-hydroxyethylthio]-4-(2,4-dihydroxyphenyl)-1-[4-(pyridin-3-yl)phenyl]azetidin-2-one]		≥ 50%	≥ 50%	
N#Cc1cncc(-c2ccc(N3C(=O)[C@H](SC[C@H](O)c4ccc(F)cc4)[C@H]3c3ccc(O)cc3O)cc2)c1 [Example 63, 5-(4-{(3R,4R)-3-[(2R)-2-(4-fluorophenyl)-2-hydroxyethylthio]-4-(2,4-dihydroxyphenyl)-2-oxoazetidinyl}phenyl)pyridine-3-carbonitrile]		≥ 50%	≥ 50%	inhibition in vivo at 0.01 mg/kg [1]: ≥ 30%; inhibition in vivo at 0.01 mg/kg [4]: ≥ 30%; inhibition in vivo at 0.01 mg/kg [2]: ≥ 30%
COc1ccncc1-c1ccc(N2C(=O)[C@H](SC[C@H](O)c3ccc(F)cc3)[C@H]2c2ccc(O)cc2O)cc1 [Example 64, (3R,4R)-3-[(2R)-2-(4-fluorophenyl)-2-hydroxyethylthio]-4-(2,4-dihydroxyphenyl)-1-[4-(4-methoxypyridin-3-yl)phenyl]azetidin-2-one]		≥ 50%	≥ 50%	
N#Cc1cncc(-c2ccc(N3C(=O)[C@H](SC[C@H](O)c4ccc(Cl)cc4)[C@H]3c3ccc(O)cc3O)cc2)c1 [Example 65, 5-(4-{(3R,4R)-3-[(2R)-2-(4-chlorophenyl)-2-hydroxyethylthio]-4-(2,4-dihydroxyphenyl)-2-oxoazetidinyl}phenyl)pyridine-3-carbonitrile]		≥ 50%	≥ 50%	
O=Cc1cc(-c2ccc(N3C(=O)[C@H](SC[C@H](O)c4ccc(F)cc4)[C@H]3c3ccc(O)cc3)cc2)cs1 [Example 67, 4-(4-{(3R,4R)-3-[(2R)-2-(4-fluorophenyl)-2-hydroxyethylthio]-4-(4-hydroxyphenyl)-2-oxoazetidinyl}phenyl)thiophene-2-carbaldehyde]	≥ 20%			
Cc1cncc(-c2ccc(N3C(=O)[C@H](SC[C@H](O)c4ccc(F)cc4)[C@H]3c3ccc(O)cc3)cc2)c1 [Example 68, (3R,4R)-3-[(2R)-2-(4-fluorophenyl)-2-hydroxyethylthio]-4-(4-hydroxyphenyl)-1-[4-(5-methylpyridin-3-yl)phenyl]azetidin-2-one]			≥ 50%	inhibition in vivo at 0.01 mg/kg [2]: ≥ 30%
O=C1[C@H](SC[C@H](O)c2ccc(Cl)cc2)[C@@H](c2ccc(O)cc2)N1c1ccc(-c2cncnc2)cc1 [Example 69, (3R,4R)-3-[(2R)-2-(4-chlorophenyl)-2-hydroxyethylthio]-4-(4-hydroxyphenyl)-1-[4-(pyrimidin-5-yl)phenyl]azetidin-2-one]				inhibition in vivo at 0.01 mg/kg [4]: ≥ 30%; inhibition in vivo at 0.01 mg/kg [2]: ≥ 30%
